The target of this assay is T1, Axl (Homo sapiens, UniProt P30530).
T1 sequence (P30530 26-894): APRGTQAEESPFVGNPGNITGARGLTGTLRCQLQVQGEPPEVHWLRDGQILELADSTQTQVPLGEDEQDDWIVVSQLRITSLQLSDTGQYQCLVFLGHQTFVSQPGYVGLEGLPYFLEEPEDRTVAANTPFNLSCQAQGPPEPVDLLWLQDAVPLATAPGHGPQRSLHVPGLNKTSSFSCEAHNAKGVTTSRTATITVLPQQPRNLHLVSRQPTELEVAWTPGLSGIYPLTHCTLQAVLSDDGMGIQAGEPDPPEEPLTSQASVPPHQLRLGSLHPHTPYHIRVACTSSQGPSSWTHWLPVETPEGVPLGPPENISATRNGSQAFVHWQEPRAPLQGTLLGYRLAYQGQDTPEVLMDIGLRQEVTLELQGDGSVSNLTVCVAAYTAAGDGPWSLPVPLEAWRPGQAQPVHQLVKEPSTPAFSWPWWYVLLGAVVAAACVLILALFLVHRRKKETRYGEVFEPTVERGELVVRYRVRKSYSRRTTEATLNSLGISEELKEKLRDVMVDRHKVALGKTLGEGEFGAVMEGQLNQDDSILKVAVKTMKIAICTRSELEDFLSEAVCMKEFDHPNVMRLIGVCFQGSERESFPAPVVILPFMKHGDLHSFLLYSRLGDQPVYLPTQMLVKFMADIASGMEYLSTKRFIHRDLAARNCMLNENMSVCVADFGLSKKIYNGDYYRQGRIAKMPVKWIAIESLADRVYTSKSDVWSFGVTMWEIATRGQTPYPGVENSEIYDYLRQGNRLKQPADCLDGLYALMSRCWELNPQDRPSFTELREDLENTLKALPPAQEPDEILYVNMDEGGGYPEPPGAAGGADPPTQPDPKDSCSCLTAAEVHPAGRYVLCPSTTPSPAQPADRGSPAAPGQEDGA
Put plainly: Axl NanoBRET intracellular kinase assay (intracellular binding, K-5 tracer displacement). More on the design: host or cells: HEK-293. The settings on record: HEK-293 cells transfected with Axl-NanoLuc, 0.35 μM K-5 NanoBRET tracer; read-out: Cell Binding AXL. In outline: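 Tracer displacement read as loss of 610/450 nm BRET after 1 h compound then 2 h 0.35 μM K-5 tracer exposure (37 °C) in transfected HEK-293 cells expressing Axl-NanoLuc (8K/well, 0.5% DMSO). Four-parameter regression yielded IC50.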
As to `Cc1cccnc1-c1ccc(-c2n[nH]c3ncc(-c4ccc5c(c4)CC[C@@H](N4C6COCC4C6)CC5)cc23)cc1` [Example 2, 6-[(7S)-2-{3-[4-(3-Methylpyridin-2-yl)phenyl]-2H-pyrazolo[3,4-b]pyridin-5-yl}-6,7,8,9-tetrahydro-5H-benzo[7]annulen-7-yl]-3-oxa-6-azabicyclo[3.1.1]heptane], the IC50 was below 100 nM.
The figure for `Clc1cccnc1-c1ccc(-c2c[nH]c3ncc(-c4ccc5c(c4)CC[C@@H](N4C6COCC4C6)CC5)cc23)cc1` [Example 43, 6-[(7S)-2-{3-[4-(3-Chloropyridin-2-yl)phenyl]-1H-pyrrolo[2,3-b]pyridin-5-yl}-6,7,8,9-tetrahydro-5H-benzo[7]annulen-7-yl]-3-oxa-6-azabicyclo[3.1.1]heptane] is 100 to 1000 nM; for `Cc1cccnc1-c1ccc(-c2c[nH]c3ncc(-c4ccc5c(c4)CC[C@@H](N4C6COCC4C6)CC5)cc23)cc1` [Example 1, 6-[(7S)-2-{3-[4-(3-Methylpyridin-2-yl)phenyl]-1H-pyrrolo[2,3-b]pyridin-5-yl}-6,7,8,9-tetrahydro-5H-benzo[7]annulen-7-yl]-3-oxa-6-azabicyclo[3.1.1]heptane] it is below 100 nM.
Consider `CS(=O)(=O)c1ccccc1-c1ccc(-c2c[nH]c3ncc(-c4ccc5c(c4)CC[C@@H](N4C6COCC4C6)CC5)cc23)cc1` [Example 93, 6-[(7S)-2-(3-{2′-Methanesulfonyl-[1,1′-biphenyl]-4-yl}-1H-pyrrolo[2,3-b]pyridin-5-yl)-6,7,8,9-tetrahydro-5H-benzo[7]annulen-7-yl]-3-oxa-6-azabicyclo[3.1.1]heptane], for which the IC50 is below 100 nM.
As for `COc1cccc(-c2ccc(-c3n[nH]c4ncc(-c5ccc6c(c5)CC[C@@H](N5C7COCC5C7)CC6)cc34)cc2)n1` [Example 162, 6-[(7S)-2-{3-[4-(6-Methoxypyridin-2-yl)phenyl]-2H-pyrazolo[3,4-b]pyridin-5-yl}-6,7,8,9-tetrahydro-5H-benzo[7]annulen-7-yl]-3-oxa-6-azabicyclo[3.1.1]heptane], the IC50 was above 1000 nM.
`Clc1cc(-c2c[nH]c3ncc(-c4ccc5c(c4)CC[C@@H](N4C6COCC4C6)CC5)cc23)ccc1-c1ccccn1` [Example 44, 6-[(7S)-2-{3-[3-Chloro-4-(pyridin-2-yl)phenyl]-1H-pyrrolo[2,3-b]pyridin-5-yl}-6,7,8,9-tetrahydro-5H-benzo[7]annulen-7-yl]-3-oxa-6-azabicyclo[3.1.1]heptane]: the IC50 was below 100 nM.
As for `Cc1nccnc1-c1ccc(-c2c[nH]c3ncc(-c4ccc5c(c4)CC[C@@H](N4C6COCC4C6)CC5)cc23)cc1` [Example 48, 6-[(7S)-2-{3-[4-(3-Methylpyrazin-2-yl)phenyl]-1H-pyrrolo[2,3-b]pyridin-5-yl}-6,7,8,9-tetrahydro-5H-benzo[7]annulen-7-yl]-3-oxa-6-azabicyclo[3.1.1]heptane], the figure is below 100 nM; as for `C[C@@H]1CCCN1[C@@]1(C)CCc2ccc(-c3cnc4[nH]nc(-c5ccc(-c6ncco6)cc5)c4c3)cc2CC1` [Example 90, 2-(4-{5-[(7S)-7-Methyl-7-[(2R)-2-methylpyrrolidin-1-yl]-6,7,8,9-tetrahydro-5H-benzo[7]annulen-2-yl]-2H-pyrazolo[3,4-b]pyridin-3-yl}phenyl)-1,3-oxazole], below 100 nM.
Consider `Cc1cncnc1-c1ccc(-c2c[nH]c3ncc(-c4ccc5c(c4)CC[C@@H](N4C6COCC4C6)CC5)cc23)cc1` [Example 47, 6-[(7S)-2-{3-[4-(5-Methylpyrimidin-4-yl)phenyl]-1H-pyrrolo[2,3-b]pyridin-5-yl}-6,7,8,9-tetrahydro-5H-benzo[7]annulen-7-yl]-3-oxa-6-azabicyclo[3.1.1]heptane], for which the IC50 was below 100 nM.
As for `N#Cc1cccnc1-c1ccc(-c2c[nH]c3ncc(-c4ccc5c(c4)CC[C@@H](N4C6COCC4C6)CC5)cc23)cc1` [Example 46, 2-(4-{5-[(7S)-7-{3-Oxa-6-azabicyclo[3.1.1]heptan-6-yl}-6,7,8,9-tetrahydro-5H-benzo[7]annulen-2-yl]-1H-pyrrolo[2,3-b]pyridin-3-yl}phenyl)pyridine-3-carbonitrile], the figure is below 100 nM; as for `Fc1cccnc1-c1ccc(-c2c[nH]c3ncc(-c4ccc5c(c4)CC[C@@H](N4C6COCC4C6)CC5)cc23)cc1` [Example 42, 6-[(7S)-2-{3-[4-(3-Fluoropyridin-2-yl)phenyl]-1H-pyrrolo[2,3-b]pyridin-5-yl}-6,7,8,9-tetrahydro-5H-benzo[7]annulen-7-yl]-3-oxa-6-azabicyclo[3.1.1]heptane], 100 to 1000 nM; as for `Fc1cc(-c2c[nH]c3ncc(-c4ccc5c(c4)CC[C@@H](N4C6COCC4C6)CC5)cc23)ccc1-c1ccccn1` [Example 40, 6-[(7S)-2-{3-[3-Fluoro-4-(pyridin-2-yl)phenyl]-1H-pyrrolo[2,3-b]pyridin-5-yl}-6,7,8,9-tetrahydro-5H-benzo[7]annulen-7-yl]-3-oxa-6-azabicyclo[3.1.1]heptane], 100 to 1000 nM.
`Cc1ccnnc1-c1ccc(-c2c[nH]c3ncc(-c4ccc5c(c4)CC[C@@H](N4C6COCC4C6)CC5)cc23)cc1` [Example 49, 6-[(7S)-2-{3-[4-(4-Methylpyridazin-3-yl)phenyl]-1H-pyrrolo[2,3-b]pyridin-5-yl}-6,7,8,9-tetrahydro-5H-benzo[7]annulen-7-yl]-3-oxa-6-azabicyclo[3.1.1]heptane]: the IC50 was below 100 nM.
The figure for `CN(C)C(=O)c1ccccc1-c1ccc(-c2c[nH]c3ncc(-c4ccc5c(c4)CC[C@@H](N4C6COCC4C6)CC5)cc23)cc1` [Example 92, N,N-Dimethyl-4′-{5-[(7S)-7-{3-oxa-6-azabicyclo[3.1.1]heptan-6-yl}-6,7,8,9-tetrahydro-5H-benzo[7]annulen-2-yl]-1H-pyrrolo[2,3-b]pyridin-3-yl}-[1,1′-biphenyl]-2-carboxamide] is below 100 nM; for `Cc1nncn1-c1ccc(-c2n[nH]c3ncc(-c4ccc5c(c4)CC[C@@H](N4C6COCC4C6)CC5)cc23)cc1` [Example 11, 6-[(7S)-2-{3-[4-(3-Methyl-4H-1,2,4-triazol-4-yl)phenyl]-1H-pyrazolo[3,4-b]pyridin-5-yl}-6,7,8,9-tetrahydro-5H-benzo[7]annulen-7-yl]-3-oxa-6-azabicyclo[3.1.1]heptane] it is 100 to 1000 nM.
Consider `C[C@@H]1CCCN1[C@@]1(C)CCc2ccc(-c3cnc4[nH]nc(-c5ccc(-c6nccs6)cc5)c4c3)cc2CC1` [Example 91, 2-(4-{5-[(7S)-7-Methyl-7-[(2R)-2-methylpyrrolidin-1-yl]-6,7,8,9-tetrahydro-5H-benzo[7]annulen-2-yl]-2H-pyrazolo[3,4-b]pyridin-3-yl}phenyl)-1,3-thiazole], for which the IC50 is below 100 nM.
In the case of `c1cncc(-c2ccc(-c3n[nH]c4ncc(-c5ccc6c(c5)CC[C@@H](N5C7COCC5C7)CC6)cc34)cc2)c1` [Example 157, 6-[(7S)-2-{3-[4-(Pyridin-3-yl)phenyl]-2H-pyrazolo[3,4-b]pyridin-5-yl}-6,7,8,9-tetrahydro-5H-benzo[7]annulen-7-yl]-3-oxa-6-azabicyclo[3.1.1]heptane], the IC50 was in the range of 100 to 1000 nM.
As for `COc1cc(-c2c[nH]c3ncc(-c4ccc5c(c4)CC[C@@H](N4C6COCC4C6)CC5)cc23)ccc1-c1ccccn1` [Example 161, 6-[(7S)-2-{3-[3-Methoxy-4-(pyridin-2-yl)phenyl]-1H-pyrrolo[2,3-b]pyridin-5-yl}-6,7,8,9-tetrahydro-5H-benzo[7]annulen-7-yl]-3-oxa-6-azabicyclo[3.1.1]heptane], the figure is 100 to 1000 nM; as for `c1cc(-c2ccc(-c3c[nH]c4ncc(-c5ccc6c(c5)CC[C@@H](N5C7COCC5C7)CC6)cc34)cc2)ccn1` [Example 41, 6-[(7S)-2-{3-[4-(Pyridin-4-yl)phenyl]-1H-pyrrolo[2,3-b]pyridin-5-yl}-6,7,8,9-tetrahydro-5H-benzo[7]annulen-7-yl]-3-oxa-6-azabicyclo[3.1.1]heptane], 100 to 1000 nM; as for `COc1cc(-c2n[nH]c3ncc(-c4ccc5c(c4)CC[C@@H](N4C6COCC4C6)CC5)cc23)ccc1-c1ccccn1` [Example 160, 6-[(7S)-2-{3-[3-Methoxy-4-(pyridin-2-yl)phenyl]-2H-pyrazolo[3,4-b]pyridin-5-yl}-6,7,8,9-tetrahydro-5H-benzo[7]annulen-7-yl]-3-oxa-6-azabicyclo[3.1.1]heptane], 100 to 1000 nM.
As for `c1cc(-n2cc(-c3c[nH]c4ncc(-c5ccc6c(c5)CC[C@@H](N5C7COCC5C7)CC6)cc34)cn2)ccn1` [Example 45, 6-[(7S)-2-{3-[1-(Pyridin-4-yl)-1H-pyrazol-4-yl]-1H-pyrrolo[2,3-b]pyridin-5-yl}-6,7,8,9-tetrahydro-5H-benzo[7]annulen-7-yl]-3-oxa-6-azabicyclo[3.1.1]heptane], the IC50 was below 100 nM.
